Tests used:
Reticulitermes spp. = test: Trail-following bioassay; assay type: in vivo
Experimental: (§1) C. formosanus workers were used in the initial bioassay for trail-following behavior. The trail-following bioassay was conducted on two overlapped pencil circles of radius 3 cm. The circumference of each circle passed through the center of the other circle. Each sample was streaked along one of the circles with a 4 μl-micropipette on nonabsorptive paper. A solvent (control) was streaked along the overlapping circle. After the solvent evaporated, one worker was placed in the center of overlap between the two circles. The arena was covered with a red plastic container to reduce visible light and extraneous air flow. To score the worker's activity, one point was given for each continuous 3 cm traveled by a termite over a one minute period. Three replications were performed for each fraction. A new termite was used and new circles were drawn for each trial.
(§2) Trail-following bioassays with standard 2-phenoxyethanol followed procedures that were essentially identical to those for the HPLC fraction screening bioassay described above, except that each trial was replicated 10 times; and that workers and soldiers of both C. formosanus and Reticulitermes spp. were tested. Four concentrations of 2-phenoxyethanol, 0.32, 0.032, 0.0032, 0.00032 μg/cm were used in the bioassays.

C. formosanus = test: Trail-following bioassay; assay type: in vivo, Coptotermes formosanus Shiraki
Experimental: as §1, §2

Mucor spp. fungus [1] = test: Antifungal filter paper disk test, trial 1 (Sabouraud dextrose agar); assay type: cell-based
Experimental: Mucor was isolated from a Formosan termite nest in our laboratory, a nest originally collected from a cottonwood tree in New Orleans, La. The fungus comprised a white mat that covered large areas of the nest that had been exposed to air and water. Fungus was scraped from the nest and suspended in distilled, de-ionized water with a Pasteur pipette. This suspension was streaked on Sabouraud dextrose agar (“SDA”) (Difco Laboratories, Detroit, Mich.) in 100×15 mm plates containing 20 mL SDA. Pure cultures were obtained from individual colonies on these plates as needed. Cultures were maintained on SDA plates in a 27° C. incubator without light until used.
Filter paper disks (Whatman #1, 1.5 cm) were treated with naphthalene, butylated hydroxytoluene (BHT), dioctyl phthalate, or adipic dioctyl ester, at rates of 2 μg, 20 μg, or 200 μg, dissolved in 100 μL hexane. Controls were treated with hexane alone. For each treatment, just prior to testing for antifungal properties, 1 mL of the hexane solution and ten filter paper disks were placed in a vial, and N2 was used to evaporate the hexane.
A suspension was prepared by scraping Mucor conidia (spores) from the culture plates, and mixing into distilled, deionized water with a Pasteur pipette. A thin layer of this suspension was spread over the surface of each of 130 SDA plates by placing each plate onto an inoculation turntable (Fisher Scientific, Hampton, N.H.), pipetting 0.2 mL of the suspension into the center of the plate, spinning the turntable, and spreading the suspension onto the agar with a bent glass rod. The plates were allowed to dry for two hours. A treated filter paper disk was then placed in the center of each plate (10 plates/treatment), and the plates were incubated at 27° C. The extent to which each filter paper disk was covered by fungus was determined by visual inspection (by the method described in greater detail below) after four, five, and six days.
(§3) Fungal growth on each filter paper disk was recorded by making tracings of the disks, inking in areas with visible fungal growth. The fraction of each disk covered by fungus was measured by making photocopy enlargements of these drawings, cutting out the enlarged disks, weighing the entire circle, cutting out the inked areas of the circle (corresponding to fungal growth), and weighing the latter. The fraction of each circle covered with fungus was then calculated as the ratio of these weights. (The weight of the photocopy toner was negligible.)
(§4) Coverage of filter paper disks was analyzed by the ANOVA procedure (SAS Institute, Version 6.11, Cary, N.C.). Tukey's Studentized Range (HSD) Test was used for comparison of mean separations (α=0.05).

Mucor spp. fungus [2] = test: Antifungal filter paper disk test, trial 3 (cornmeal agar, sealed plates, increased rates); assay type: cell-based
Experimental: A second trial was conducted with filter papers treated with naphthalene, BHT, or 2,6-di-t-butyl-4-methyl-phenol (“DBP”). A fungal suspension was prepared as in the first trial. Spore concentrations were determined with a counting chamber (Petroff-Hauser, Hauser Scientific Partnership, Horsham, Pa.). Concentrations were adjusted to approximately 10^7 spores/mL. In the first trial fungus grew on SDA quickly, forming a thick mat that soon filled the entire petri dish. […] A thin layer of the spore suspension was spread over the surface of each of 24 cornmeal agar plates using a turntable and bent glass rod, as previously described.
Filter paper disks were treated with naphthalene, BHT, or DBP at rates of 2 μg, 20 μg, or 200 μg, prepared as in the first trial. On each plate were placed four filter paper disks spaced equidistant from one another (one disk containing each of the three application rates of one of the test compounds, and one disk containing only the hexane control). Each plate was then covered and sealed with parafilm to reduce the release of volatile compounds. The concentration of naphthalene in the headspace was 0.04 μg/cm^3; except in trial 3 below, in which the concentration was 34.6 μg/cm^3, about 700 times the concentration we have observed in termite nest materials. […] The experiment was then repeated, increasing the rates of naphthalene, BHT, and DBP to 200 μg, 600 μg, and 1000 μg (trial 3).
as §3, §4

Mucor spp. fungus [3] = test: Antifungal filter paper disk test, trial 2 (cornmeal agar, sealed plates); assay type: cell-based
Experimental: A second trial was conducted with filter papers treated with naphthalene, BHT, or 2,6-di-t-butyl-4-methyl-phenol (“DBP”). A fungal suspension was prepared as in the first trial. Spore concentrations were determined with a counting chamber (Petroff-Hauser, Hauser Scientific Partnership, Horsham, Pa.). Concentrations were adjusted to approximately 10^7 spores/mL. In the first trial fungus grew on SDA quickly, forming a thick mat that soon filled the entire petri dish. Therefore, in the second trial cornmeal agar (CMA, Difco Laboratories, Detroit, Mich.) was used to slow the growth of the fungus during the six-day observation period. A thin layer of the spore suspension was spread over the surface of each of 24 cornmeal agar plates using a turntable and bent glass rod, as previously described.
Filter paper disks were treated with naphthalene, BHT, or DBP at rates of 2 μg, 20 μg, or 200 μg, prepared as in the first trial. On each plate were placed four filter paper disks spaced equidistant from one another (one disk containing each of the three application rates of one of the test compounds, and one disk containing only the hexane control). Each plate was then covered and sealed with parafilm to reduce the release of volatile compounds. The concentration of naphthalene in the headspace was 0.04 μg/cm^3; except in trial 3 below, in which the concentration was 34.6 μg/cm^3, about 700 times the concentration we have observed in termite nest materials. The growth of fungus on and around each filter paper disk was recorded three, four, and five days after treatment. The experiment was then repeated, increasing the rates of naphthalene, BHT, and DBP to 200 μg, 600 μg, and 1000 μg (trial 3).
as §3, §4

[4] = trial 3, 0 μg disk (hexane only) on the same sealed plate as the compound's treated disks
[5] = trial 2, 0 μg disk (hexane only) on the same sealed plate as the compound's treated disks

With `OCCOc1ccccc1` [2-phenoxyethanol] the Trail-following behavior (Reticulitermes spp.; 0.00032 μg/cm) was “Limited trail-following activity”, the Trail-following behavior (Reticulitermes spp.; Reticulitermes spp. workers and soldiers, 0.32, 0.032 and 0.0032 μg/cm) was “elicited trail-following behaviors” and the Trail-following behavior (C. formosanus; 0.00032 μg/cm) was “Limited trail-following activity”. For the same compound, the Trail-following behavior (C. formosanus; C. formosanus workers and soldiers, 0.32, 0.032 and 0.0032 μg/cm) was “elicited trail-following behaviors”.

In the case of `CCCCCCCCOC(=O)CCCCC(=O)OCCCCCCCC` [Adipic dioctyl ester, adipic dioctyl ester], the “Fraction Covered, Day 4 (mean percentage of filter paper disk surface covered by fungus)” value (Mucor spp. fungus [1]; trial 1, rate 2 μg per disk) is reported as 44%, the “Fraction Covered, Day 5 (mean percentage of filter paper disk surface covered by fungus)” value (Mucor spp. fungus [1]; trial 1, rate 2 μg per disk) is reported as 83% and the “Fraction covered, Day 6 (mean percentage of filter paper disk surface covered by fungus)” value (Mucor spp. fungus [1]; trial 1, rate 2 μg per disk) is reported as 94%. For the same compound, the “Fraction Covered, Day 4 (mean percentage of filter paper disk surface covered by fungus)” value (Mucor spp. fungus [1]; trial 1, rate 20 μg per disk) was 20%, the “Fraction Covered, Day 5 (mean percentage of filter paper disk surface covered by fungus)” value (Mucor spp. fungus [1]; trial 1, rate 20 μg per disk) was 80% and the “Fraction covered, Day 6 (mean percentage of filter paper disk surface covered by fungus)” value (Mucor spp. fungus [1]; trial 1, rate 20 μg per disk) was 62%. The “Fraction Covered, Day 4 (mean percentage of filter paper disk surface covered by fungus)” value (Mucor spp. fungus [1]; trial 1, rate 200 μg per disk) was 20%, the “Fraction Covered, Day 5 (mean percentage of filter paper disk surface covered by fungus)” value (Mucor spp. fungus [1]; trial 1, rate 200 μg per disk) was 75% and the “Fraction covered, Day 6 (mean percentage of filter paper disk surface covered by fungus)” value (Mucor spp. fungus [1]; trial 1, rate 200 μg per disk) was 91%.

With `Cc1cc(C(C)(C)C)c(O)c(C(C)(C)C)c1` [DBP, 2,6-di-t-butyl-4-methyl-phenol] the “Fraction Covered, Day 3 (mean percentage of filter paper disk surface covered by fungus)” value (Mucor spp. fungus [2]; [4]) was 40%, the “Fraction Covered, Day 4 (mean percentage of filter paper disk surface covered by fungus)” value (Mucor spp. fungus [2]; [4]) was 100% and the “Fraction Covered, Day 5 (mean percentage of filter paper disk surface covered by fungus)” value (Mucor spp. fungus [2]; [4]) was 100%. For the same compound, the “Fungal coverage of treated disks” value (Mucor spp. fungus [2]; trial 3, fourth day) was ~100%, the “Fraction Covered, Day 3 (mean percentage of filter paper disk surface covered by fungus)” value (Mucor spp. fungus [2]; trial 3, rate 200 μg per disk) was 0% and the “Fraction Covered, Day 4 (mean percentage of filter paper disk surface covered by fungus)” value (Mucor spp. fungus [2]; trial 3, rate 200 μg per disk) was 94%. For the same compound, the “Fraction Covered, Day 5 (mean percentage of filter paper disk surface covered by fungus)” value (Mucor spp. fungus [2]; trial 3, rate 200 μg per disk) was 93%, the “Fraction Covered, Day 3 (mean percentage of filter paper disk surface covered by fungus)” value (Mucor spp. fungus [2]; trial 3, rate 600 μg per disk) was 1% and the “Fraction Covered, Day 4 (mean percentage of filter paper disk surface covered by fungus)” value (Mucor spp. fungus [2]; trial 3, rate 600 μg per disk) was 100%. The “Fraction Covered, Day 5 (mean percentage of filter paper disk surface covered by fungus)” value (Mucor spp. fungus [2]; trial 3, rate 600 μg per disk) was 100%, the “Fraction Covered, Day 3 (mean percentage of filter paper disk surface covered by fungus)” value (Mucor spp. fungus [2]; trial 3, rate 1000 μg per disk) was 0% and the “Fraction Covered, Day 4 (mean percentage of filter paper disk surface covered by fungus)” value (Mucor spp. fungus [2]; trial 3, rate 1000 μg per disk) was 91%. For the same compound, the “Fraction Covered, Day 5 (mean percentage of filter paper disk surface covered by fungus)” value (Mucor spp. fungus [2]; trial 3, rate 1000 μg per disk) was 97%, the “Fraction Covered, Day 3 (mean percentage of filter paper disk surface covered by fungus)” value (Mucor spp. fungus [3]; [5]) was 96% and the “Fraction Covered, Day 4 (mean percentage of filter paper disk surface covered by fungus)” value (Mucor spp. fungus [3]; [5]) was 100%. The “Fraction Covered, Day 5 (mean percentage of filter paper disk surface covered by fungus)” value (Mucor spp. fungus [3]; [5]) was 100%, the “Fraction Covered, Day 3 (mean percentage of filter paper disk surface covered by fungus)” value (Mucor spp. fungus [3]; trial 2, rate 2 μg per disk) was 98% and the “Fraction Covered, Day 4 (mean percentage of filter paper disk surface covered by fungus)” value (Mucor spp. fungus [3]; trial 2, rate 2 μg per disk) was 99%. The “Fraction Covered, Day 5 (mean percentage of filter paper disk surface covered by fungus)” value (Mucor spp. fungus [3]; trial 2, rate 2 μg per disk) was 99%, the “Fraction Covered, Day 3 (mean percentage of filter paper disk surface covered by fungus)” value (Mucor spp. fungus [3]; trial 2, rate 20 μg per disk) was 92% and the “Fraction Covered, Day 4 (mean percentage of filter paper disk surface covered by fungus)” value (Mucor spp. fungus [3]; trial 2, rate 20 μg per disk) was 95%. The “Fraction Covered, Day 5 (mean percentage of filter paper disk surface covered by fungus)” value (Mucor spp. fungus [3]; trial 2, rate 20 μg per disk) was 98%, the “Fraction Covered, Day 3 (mean percentage of filter paper disk surface covered by fungus)” value (Mucor spp. fungus [3]; trial 2, rate 200 μg per disk) was 81% and the “Fraction Covered, Day 4 (mean percentage of filter paper disk surface covered by fungus)” value (Mucor spp. fungus [3]; trial 2, rate 200 μg per disk) was 91%. For the same compound, the “Fraction Covered, Day 5 (mean percentage of filter paper disk surface covered by fungus)” value (Mucor spp. fungus [3]; trial 2, rate 200 μg per disk) was 99%.

For `CCCCCCCCOC(=O)c1ccccc1C(=O)OCCCCCCCC` [Dioctyl phthalate, dioctyl phthalate], the “Fraction Covered, Day 4 (mean percentage of filter paper disk surface covered by fungus)” value (Mucor spp. fungus [1]; trial 1, rate 2 μg per disk) was 67%, the “Fraction Covered, Day 5 (mean percentage of filter paper disk surface covered by fungus)” value (Mucor spp. fungus [1]; trial 1, rate 2 μg per disk) was 78% and the “Fraction covered, Day 6 (mean percentage of filter paper disk surface covered by fungus)” value (Mucor spp. fungus [1]; trial 1, rate 2 μg per disk) was 89%. For the same compound, the “Fraction Covered, Day 4 (mean percentage of filter paper disk surface covered by fungus)” value (Mucor spp. fungus [1]; trial 1, rate 20 μg per disk) was 32%, the “Fraction Covered, Day 5 (mean percentage of filter paper disk surface covered by fungus)” value (Mucor spp. fungus [1]; trial 1, rate 20 μg per disk) was 49% and the “Fraction covered, Day 6 (mean percentage of filter paper disk surface covered by fungus)” value (Mucor spp. fungus [1]; trial 1, rate 20 μg per disk) was 88%. The “Fraction Covered, Day 4 (mean percentage of filter paper disk surface covered by fungus)” value (Mucor spp. fungus [1]; trial 1, rate 200 μg per disk) was 57%, the “Fraction Covered, Day 5 (mean percentage of filter paper disk surface covered by fungus)” value (Mucor spp. fungus [1]; trial 1, rate 200 μg per disk) was 69% and the “Fraction covered, Day 6 (mean percentage of filter paper disk surface covered by fungus)” value (Mucor spp. fungus [1]; trial 1, rate 200 μg per disk) was 82%.

— US6352703B1, “Compositions and methods for detecting and killing termites” (Board of Supervisors of Louisiana State University and …, priority 1997, dated 2002)
